Data published in patent EP2435019B1, “DODECA-2E,4E-DIENE AMIDES AND THEIR USE AS MEDICAMENTS AND COSMETICS” (Dr. August Wolff GmbH & Co. KG Arzneimittel, priority 2009, dated 2010).
Where two headings read alike, the source gives them in different places.

Assays:
[1] = tested on: Arachidonoylethanolamide Transport (AEAT); assay: Cellular uptake of [3H]-AEA in U937 cells (assay C); assay type: cell-based; details: Homo sapiens, U-937; [3H]-AEA uptake, assay C (Tables 2 and 3)
[2] = target: T1, CB1 (Homo sapiens, UniProt P21554); assay: Radioligand displacement assay on CB1 receptor; assay type: binding
T1 construct: purchased Perkin Elmer RBHCB1M

[3] = target: T2, FAAH (Sus scrofa, UniProt Q9TUI8); assay: Fatty acid amide hydrolase (FAAH) inhibition, pig brain homogenate (assay D); assay type: biochemical; details: 1 µM; pig brain homogenate (assay D)
T2 construct: 165 µl of diluted pig brain homogenate; from tissue; host or cells: pig brain homogenate
T2 sequence (Q9TUI8 1-579): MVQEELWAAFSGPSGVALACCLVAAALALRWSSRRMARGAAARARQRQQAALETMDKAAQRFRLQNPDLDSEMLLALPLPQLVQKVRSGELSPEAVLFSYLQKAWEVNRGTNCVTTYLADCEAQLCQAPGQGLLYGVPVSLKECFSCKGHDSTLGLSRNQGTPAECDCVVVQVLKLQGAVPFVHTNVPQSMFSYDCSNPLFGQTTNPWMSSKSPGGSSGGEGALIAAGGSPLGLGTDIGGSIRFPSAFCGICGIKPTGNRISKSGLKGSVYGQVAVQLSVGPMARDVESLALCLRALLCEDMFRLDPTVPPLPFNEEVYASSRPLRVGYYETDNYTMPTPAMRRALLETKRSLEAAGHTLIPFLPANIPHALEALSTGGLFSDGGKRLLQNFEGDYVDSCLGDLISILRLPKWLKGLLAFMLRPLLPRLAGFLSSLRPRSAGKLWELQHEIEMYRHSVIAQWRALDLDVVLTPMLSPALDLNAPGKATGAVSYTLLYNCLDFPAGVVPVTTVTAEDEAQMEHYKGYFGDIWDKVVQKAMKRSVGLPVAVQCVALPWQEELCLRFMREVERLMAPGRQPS

[4] = target: CB2 (Homo sapiens, UniProt P34972); assay: Radioligand displacement assay on CB2 receptor; assay type: binding; set-up: purchased Perkin Elmer RBXCB2M
CB2, sequence (P34972 whole entry): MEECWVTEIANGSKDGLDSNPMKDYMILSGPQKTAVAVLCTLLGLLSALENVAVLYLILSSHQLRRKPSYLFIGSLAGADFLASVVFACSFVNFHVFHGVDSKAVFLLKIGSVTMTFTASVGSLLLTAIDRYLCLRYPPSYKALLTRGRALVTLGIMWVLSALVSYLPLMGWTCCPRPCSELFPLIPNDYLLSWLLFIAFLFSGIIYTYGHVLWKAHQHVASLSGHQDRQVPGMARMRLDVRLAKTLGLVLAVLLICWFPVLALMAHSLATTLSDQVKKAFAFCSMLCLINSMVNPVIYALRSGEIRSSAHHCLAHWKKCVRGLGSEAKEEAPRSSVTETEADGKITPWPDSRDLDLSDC

T1 sequence (P21554 whole entry): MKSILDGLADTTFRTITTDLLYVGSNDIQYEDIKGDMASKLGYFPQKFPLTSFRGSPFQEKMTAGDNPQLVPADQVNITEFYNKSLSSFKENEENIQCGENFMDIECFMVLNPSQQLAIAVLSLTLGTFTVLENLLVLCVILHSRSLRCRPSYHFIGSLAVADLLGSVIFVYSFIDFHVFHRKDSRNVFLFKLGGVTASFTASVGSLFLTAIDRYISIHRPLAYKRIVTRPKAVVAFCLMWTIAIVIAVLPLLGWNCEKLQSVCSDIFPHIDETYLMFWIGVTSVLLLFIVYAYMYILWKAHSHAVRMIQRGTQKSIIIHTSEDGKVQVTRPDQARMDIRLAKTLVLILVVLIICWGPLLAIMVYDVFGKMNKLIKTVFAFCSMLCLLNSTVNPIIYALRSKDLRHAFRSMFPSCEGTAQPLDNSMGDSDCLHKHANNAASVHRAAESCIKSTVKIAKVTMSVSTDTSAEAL

SMILES | EC50 [1] | Ki [2] | FAAH inhibition at 1 µM [3] | Ki [4] | Ki ([4]; displacement of 0.11 nM [3H]CP55,940, membrane recombinantly over-expressing CB2, read-out: Receptor affinity Ki CB2)
CCCCCCC/C=C/C=C/C(=O)NCCO [Example 1, (2E,4E)-N-(2-hydroxyethyl)dodeca-2,4-diene amide] | 1.22 ± 0.24 µM | > 20 µM | <10 % of control | > 20 µM | 
CCCCCCC/C=C/C=C/C(=O)NCCc1cccc(OC)c1 [Example 9, (2E,4E)-N-(3-methoxyphenethyl)dodeca-2,4-diene amide] | 0.87 ± 0.12 µM | > 20 µM | 14.63 ± 2.91 % of control |  | 9.44 ± 0.889 µM
